From the METLIN SMRT retention time set (Domingo-Almenara et al. 2019) come the findings set out here.

The series is described as follows: gradient 5% acetonitrile 3 min, to 50% in 2 min, to 85% in 15 min, held 3 min, 100 µL/min. To be noted: column: Zorbax Extend-C18 2.1 x 50 mm; eluents: water / acetonitrile, 0.1% formic acid. In a few lines:
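The system's dead and dwell volumes were 40 μL and 900 μL, with a Zorbax Extend-C18 column (2.1 × 50 mm, 1.8 μm) run at 100 μL/min in water and acetonitrile containing 0.1% formic acid each. Pure standards were analyzed in mixtures of ~100 molecules by HPLC–quadrupole time-of-flight mass spectrometry in positive and negative ionization mode. Retention time was assigned from computationally picked, manually inspected adduct peaks.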
`CC(C)NC(=O)C1=CCN(C(=O)c2cccc(F)c2)CC1` registered an RP-LC retention time of 712 s.

With `CCC1CCCCN1C(=O)CN1CN(c2ccc(C)cc2)c2ncccc2S1(=O)=O` (stereo not given), the RP-LC retention time came out at 1030 s.

In turn, `CC(C)C(=O)NCc1csc(C2CCCN(C(=O)C3CCCC3)C2)n1` (stereo not given) returned an RP-LC retention time of 691 s.

In the case of `COc1ccc(C2Cn3cnc(C(=O)N4CCC(C(=O)NCc5ccco5)CC4)c3CO2)cc1` (stereo not given), the RP-LC retention time was found to be 698 s.

Compound `O=C(Cc1csc(-c2ccccc2)n1)Nc1nc(-c2ccc3c(c2)CCCC3)cs1` returned an RP-LC retention time of 764 s.

`CSc1ccc(CNC(=O)C2CCCN(C(=O)c3[nH]c(C)c(C(=O)OC(C)C)c3C)C2)cc1` (stereo not given) had an RP-LC retention time of 929 s.

`COc1ccc(-n2nc(-c3nc(-c4ccccn4)no3)c3ccccc3c2=O)cc1` returned an RP-LC retention time of 946 s.

Take `CC(C)OCCCNC(=O)Cn1c(=O)c2cccn2c2ccc(F)cc21`: the RP-LC retention time worked out at 754 s.

Take `CCN1CCN(c2ccc3nnc(CCc4nc(-c5ccc(F)cc5)no4)n3n2)CC1`: the RP-LC retention time turned out to be 602 s.

For the compound `Fc1cccc(-c2nc(-c3ccc4nncn4c3)no2)c1`, the RP-LC retention time was 813 s.

For the compound `CCOc1cccc(-c2noc(Cc3nnc(-c4cccc(Br)c4)o3)n2)c1`, the RP-LC retention time turned out to be 1160 s.

The compound `CC1(C(=O)NC2CCN(c3ccc(=O)n(CCOc4ccccc4)n3)C2)CCCCC1` (stereo not given) came in with an RP-LC retention time of 906 s.

Take `CNC(=O)[C@@H]1CN(C(=O)Cn2nc(C(F)(F)F)cc2C)C[C@H]1c1n[nH]c(C)n1`: the RP-LC retention time was determined as 618 s.

On to `C[C@H](NC(=O)c1cc2ccccc2[nH]1)C(=O)NCCc1c[nH]c2ccccc12`, for which the RP-LC retention time stood at 1150 s.

In turn, `Cc1ccc2oc(C(=O)NCc3c(F)cccc3F)cc2n1` displayed an RP-LC retention time of 652 s.

As for `O=C1CCCCC(C(=O)N2CCOCC2)N1` (stereo not given), the RP-LC retention time was 575 s.

The compound `CCn1ccc(NC(=O)NC2CCCCC2)n1` came in with an RP-LC retention time of 779 s.

In turn, `Cc1cc(=O)n(CC(=O)N2CCCc3ccccc32)c(N2CCCCC2)n1` yielded an RP-LC retention time of 703 s.

Consider `CCOCCCNC(=O)c1cc2sc(CC)cc2n1C`, for which the RP-LC retention time amounted to 960 s.

Compound `Cc1ccc(N(C)S(=O)(=O)c2cc(-c3[nH]ncc3C(=O)N(C)C)oc2C)cc1` returned an RP-LC retention time of 729 s.

As to `O=C(c1ccccc1Cl)N1CCN(c2cc(-c3ccccc3)[nH]n2)CC1`, the RP-LC retention time turned out to be 804 s.

Compound `CC(C)(C)c1csc(-c2csc(S(=O)(=O)NCc3ccc(F)cc3F)c2)n1` came in with an RP-LC retention time of 1220 s.

`CCNc1nc(NC(C)C)nc(-c2ccncc2)n1`: the RP-LC retention time worked out at 733 s.

On to `CCOC(=O)c1c(N)ssc1=S`, for which the RP-LC retention time came to 786 s.

In turn, `Cc1ccc(CNC(=O)C2(C)CCN(C(=O)Nc3ccc(C)c(F)c3)CC2)cc1` displayed an RP-LC retention time of 914 s.

In turn, `CCOC(=O)c1ccc(NC(=O)Cn2c(N3CCOCC3)nc(CC)cc2=O)cc1` showed an RP-LC retention time of 794 s.

With `Cc1nn(CC(=O)NCCN2CCOCC2)c(=O)c2c(-n3cccc3)n(-c3ccc(F)cc3)nc12`, the RP-LC retention time amounted to 654 s.

`Cc1ccc(C(=O)N2CCN(c3nnc4cccc(C)n34)CC2)cc1F` had an RP-LC retention time of 667 s.

In turn, `COc1cccc(NC(=O)Cn2nc3cc(C)nc(Nc4ccc(C)c(F)c4)n3c2=O)c1` displayed an RP-LC retention time of 1100 s.

`COc1ccc(Cc2nnc3sc(Cc4ccc(OC)c(OC)c4)nn23)cc1`: the RP-LC retention time worked out at 815 s.

Consider `O=C(Nc1cccc(F)c1)N1CCN(Cc2nc3cc(Cl)ccc3o2)CC1`, for which the RP-LC retention time worked out at 784 s.

`COc1ccc(N2CCN(C(=O)C3CC(=O)N(CCc4ccccc4)C3)CC2)cc1` (stereo not given) came in with an RP-LC retention time of 729 s.

Compound `O=S(=O)(c1ccc(-c2nnc(C3CC3)o2)o1)N1CCCCCC1` displayed an RP-LC retention time of 898 s.

`CCN(CC)S(=O)(=O)c1cc(-c2nnc(-c3ccc(OC)cc3)o2)ccc1Cl` registered an RP-LC retention time of 1140 s.

Turning to `CCCNC(=O)C1CCN(c2ccc(SCC(=O)Nc3ccc(CC)cc3)nn2)CC1`, the RP-LC retention time was 694 s.

As to `O=C(CCC1CCCN(C(=O)Nc2ccccc2)C1)NCc1cccc(F)c1` (stereo not given), the RP-LC retention time is 806 s.

With `CNC(=O)c1ccc(-c2nc3cc(NS(=O)(=O)c4ccc5c(c4)CCCC5)ccc3n2C)cc1`, the RP-LC retention time came to 685 s.

In turn, `CC(=O)Nc1ccc(NC(=O)C2CC(=O)N(c3ccc4c(c3)CCN4C(=O)C3CC3)C2)cc1` (stereo not given) yielded an RP-LC retention time of 658 s.

In turn, `CCN(CC)S(=O)(=O)c1cc(-c2nnc(-c3ccccc3Cl)o2)ccc1OC` had an RP-LC retention time of 1040 s.

The compound `COCCNC(=O)NCCS(=O)(=O)N1CCN(c2cccc(C)c2)CC1` came in with an RP-LC retention time of 661 s.

Consider `COCCn1c(CC2CCN(C(=O)c3ccc(C)s3)C2)nc2cccnc21` (stereo not given), for which the RP-LC retention time is 604 s.

`COc1ccccc1C1(CNC(=O)Nc2cccc(Cl)c2)CCOCC1` showed an RP-LC retention time of 867 s.

Consider `CC(C)c1ccc(NC(=O)C2CCCN(c3cc(=O)n(C)c(=O)n3C)C2)cc1` (stereo not given), for which the RP-LC retention time was 829 s.

`CCOC(=O)c1c(C)c(C(=O)C(C)N(C(=O)c2ccc(Cl)cc2)C2CC2)c(C)n1CC` (stereo not given) registered an RP-LC retention time of 1140 s.

With `Cc1cc(C)cc(Nc2c(-c3ccc(N4CCOCC4)cc3)nc3ncccn23)c1`, the RP-LC retention time is 719 s.

In turn, `O=C(NC1CC1)C1CCN(c2nc3ccc(-c4ccccc4)nc3s2)CC1` returned an RP-LC retention time of 865 s.

The compound `Cc1ccc(NC(=O)Nc2nccn(-c3cccc(Cl)c3)c2=O)cc1C` yielded an RP-LC retention time of 1090 s.

The compound `Cc1ccc(NC(=O)Cn2cc3c(n2)CCC(C)C3)c(Cl)c1` (stereo not given) registered an RP-LC retention time of 1110 s.

Consider `CCN1C(=O)C(C)(C)COc2ccc(NC(=O)Cc3ccc(F)cc3)cc21`, for which the RP-LC retention time stood at 889 s.

`CCOc1cccc(C2CC(c3ccc(Br)cc3)=NC3(CCN(C)CC3)N2)c1O` (stereo not given) showed an RP-LC retention time of 649 s.

`Cc1ccc(-c2cc3n(n2)CCCN(C(=O)CCC(=O)c2ccc(F)cc2)C3)cc1` displayed an RP-LC retention time of 943 s.

With `O=C(NCc1cccnc1)C1CCCN(c2ccc(Sc3ccc(Br)cc3)nn2)C1` (stereo not given), the RP-LC retention time is 653 s.

For `COc1ccc(C)cc1NS(=O)(=O)c1ccccc1-c1nc(-c2ccc(F)cc2)no1`, the RP-LC retention time turned out to be 1280 s.

Regarding `COCCC1(NS(C)(=O)=O)CCN(C(=O)NC(C)C)CC1`, the RP-LC retention time was 588 s.

Take `COc1ccc(CC(=O)N2CCC3(CC2)NC(=O)c2cccc(Cl)c2N3)cc1`: the RP-LC retention time is 761 s.

`CCC(=O)N1CCc2cc(N3CC(C(=O)Nc4ccc(SC)cc4)CC3=O)ccc21` (stereo not given) registered an RP-LC retention time of 789 s.

In the case of `CN1CCN(C(CNC(=O)c2ccc(Cl)cc2)c2ccc(N(C)C)cc2)CC1` (stereo not given), the RP-LC retention time worked out at 557 s.

Turning to `Cc1ccc(NC(=O)Nc2nccn(-c3cccc(Cl)c3)c2=O)cc1F`, the RP-LC retention time is 1000 s.

`Cc1nc(-c2cccc(F)c2)sc1CCNC(=O)Nc1ccc2c(c1)OCO2`: the RP-LC retention time came out at 817 s.

The compound `CCCCN(C)C(=O)Cn1c(=O)c2cnc(-c3ccccc3)nc2n(C)c1=O` had an RP-LC retention time of 1000 s.

For `COc1ccccc1CNC(=O)C1(c2ccc(NS(C)(=O)=O)cc2)CCCCC1`, the RP-LC retention time came to 893 s.

Consider `CCc1ccc(CNC(=O)C2CCCN(c3ccc(=O)n(-c4cccc(F)c4)n3)C2)cc1` (stereo not given), for which the RP-LC retention time is 937 s.

On to `COc1cccc(-n2c(N3CCCC(C(=O)NCc4cccs4)C3)nc3ccsc3c2=O)c1` (stereo not given), for which the RP-LC retention time worked out at 822 s.

Compound `COc1ccc(-c2ncc3c(n2)CCN(C(=O)c2cccc(Cl)c2)C3)cc1` came in with an RP-LC retention time of 975 s.

`Cc1ccc(C)c(NS(=O)(=O)c2cc(-c3[nH]ncc3C(=O)N3CCCC3)oc2C)c1` yielded an RP-LC retention time of 760 s.

In turn, `O=C(Cn1c(=O)c(S(=O)(=O)c2ccccc2)cc2ccccc21)NCc1ccco1` registered an RP-LC retention time of 810 s.

Take `Cc1ccc(NC(=O)Cn2c(=O)n(-c3ccc(F)cc3)c3ncccc32)cc1`: the RP-LC retention time was determined as 880 s.

Take `O=C(CC1=C2CCCCC2NC1=O)Nc1cccc(F)c1` (stereo not given): the RP-LC retention time came out at 719 s.

Consider `CC(C)c1ccc(Nc2c(-c3cc(Br)ccc3O)nc3ncccn23)cc1`, for which the RP-LC retention time is 1190 s.

The compound `Cc1noc(C)c1C1CCCN1C(=O)Cc1ccccc1F` (stereo not given) returned an RP-LC retention time of 736 s.

For the compound `CCc1c(C2CCN(C(=O)Nc3ccc(C)c(C)c3)CC2)noc1N`, the RP-LC retention time amounted to 793 s.

In turn, `CC1CCCCN1c1ccn2c(=O)n(CC(=O)Nc3cc(F)cc(F)c3)nc2n1` (stereo not given) yielded an RP-LC retention time of 810 s.

`COc1ccc(-c2noc(Cn3nc(-c4ccccc4)ccc3=O)n2)cc1OC` displayed an RP-LC retention time of 900 s.

On to `Cc1sc(NC(=O)c2ccc(F)cc2)nc1-c1ccc2c(c1)NC(=O)CO2`, for which the RP-LC retention time came to 872 s.

Regarding `COc1ccc(NS(=O)(=O)c2ccc(N)cc2)nn1`, the RP-LC retention time was 572 s.

In turn, `O=C(CCC1CCCC1)N1CCN(c2nnc3ccc(Cl)cn23)CC1` showed an RP-LC retention time of 832 s.

For the compound `CCc1noc(NC(C)=O)c1-c1ccc(OC)c(S(=O)(=O)N2CCN(c3ccccc3)CC2)c1`, the RP-LC retention time amounted to 895 s.

Compound `Cc1nc(-c2csc(S(=O)(=O)N3CCC(C(=O)N4CCCCCC4)CC3)c2)no1` gave an RP-LC retention time of 859 s.

Compound `CN(C)[C@@H]1CN(C(=O)CCc2c[nH]c3ccccc23)C[C@H]1CO` displayed an RP-LC retention time of 573 s.

For the compound `CCCN(CC1CCOC1)C(=O)c1ccc(F)c(F)c1` (stereo not given), the RP-LC retention time is 787 s.
